Results on 14 molecules are retold here after PubChem BioAssay (NCI).

Each structure is given as a SMILES string.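 Cells were grown in 96-well plates and exposed to each compound for 48 hours at five concentrations; endpoints were interpolated linearly between bracketing concentrations, or set to the highest concentration if not reached. The concentration for 50% growth inhibition is given as GI50. Definition used: TGI = concentration required for complete inhibition of growth.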

Among the test systems are U251 CNS; UACC-257 melanoma; CAKI-1 renal; PC-3 prostate; LOX IMVI melanoma; SR leukemia; T-47D breast; COLO 205 colon; HOP-62 NSCLC; SF-539 CNS.
Test in all cases: NCI-60 cell line screen, 48 h

On to `CC(C)CCN=C(N)c1ccc(N2CCN(c3ccc(C(N)=NCCC(C)C)cc3)CC2)cc1`, for which the GI50 is 13.9 µM in the test with U251 CNS; 12.9 µM in the test on UACC-257 melanoma; 31.4 µM in the test on CAKI-1 renal; 11.4 µM in the test with PC-3 prostate; 21.2 µM in the test with LOX IMVI melanoma; 2.73 µM in the test on SR leukemia. The GI50 with T-47D breast was 9.54 µM; in the test on COLO 205 colon it was 8.9 µM; in the test on HOP-62 NSCLC, 10.4 µM. The TGI is 32.9 µM in the test on U251 CNS; 82.3 µM in the test with UACC-257 melanoma; greater than 100 µM in the test with CAKI-1 renal; 43.4 µM with PC-3 prostate; 57.3 µM with LOX IMVI melanoma; 7.44 µM with SR leukemia. Further, the TGI was 57.9 µM with T-47D breast, greater than 100 µM in the test on COLO 205 colon and 26.9 µM in the test with HOP-62 NSCLC.

`CC(=O)c1ccc(NC(=O)C(=O)Nn2c(=S)[nH]c3ccccc3c2=O)cc1`: the TGI in the test with U251 CNS, in the test with UACC-257 melanoma, in the test with CAKI-1 renal, in the test with SF-539 CNS, with LOX IMVI melanoma and in the test on SR leukemia was greater than 100 µM throughout. Also, the TGI in the test on COLO 205 colon and in the test with HOP-62 NSCLC was greater than 100 µM each time.

With `O=C1C2C3C=CC(C2C(=O)N1COP(=O)(O)O)C1C2C(=O)N(COP(=O)(O)O)C(=O)C2C31` (stereo not given), the TGI was greater than 100 µM with U251 CNS; greater than 100 µM in the test on UACC-257 melanoma; greater than 100 µM with CAKI-1 renal; greater than 100 µM with SF-539 CNS; greater than 64.1 µM with LOX IMVI melanoma; 38.6 µM in the test with SR leukemia. The TGI was greater than 65 µM in the test with COLO 205 colon and greater than 100 µM with HOP-62 NSCLC.

As to `COc1cc(OC)c(/C=C/c2cnc3ccccc3n2)c(OC)c1`, the TGI in the test with U251 CNS, in the test with UACC-257 melanoma, in the test with CAKI-1 renal, in the test with SF-539 CNS, in the test on PC-3 prostate and in the test on LOX IMVI melanoma was greater than 10 µM in each case. The TGI in the test on T-47D breast, in the test with COLO 205 colon and in the test with HOP-62 NSCLC was greater than 10 µM each time.

As to `COc1ccc(/C(C#N)=C/c2ccc(OC)c(OC)c2)cc1`, the TGI in the test with U251 CNS, in the test with UACC-257 melanoma, with CAKI-1 renal, in the test with SF-539 CNS, with PC-3 prostate and in the test on LOX IMVI melanoma was greater than 100 µM each time. The TGI in the test with T-47D breast, in the test with COLO 205 colon and in the test with HOP-62 NSCLC was greater than 100 µM each time.

For `O=C(NP(=O)(N1CC1)N1CC1)c1cc(I)ccc1I`, the TGI is greater than 100 µM in the test on U251 CNS; greater than 100 µM with UACC-257 melanoma; greater than 100 µM in the test with CAKI-1 renal; 71.7 µM in the test with SF-539 CNS; greater than 100 µM in the test with PC-3 prostate; 54.8 µM in the test with LOX IMVI melanoma. Further, the results for the TGI in the test on T-47D breast, in the test on COLO 205 colon and in the test on HOP-62 NSCLC were greater than 100 µM, greater than 100 µM and greater than 71.5 µM, respectively.

As to `COc1cc2c3c(c1OC)-c1c(ccc4c1OCO4)CC3(C#N)N(C(=O)c1ccccc1)CC2` (stereo not given), the TGI in the test with U251 CNS, in the test on UACC-257 melanoma, in the test with CAKI-1 renal, in the test on SF-539 CNS, in the test on LOX IMVI melanoma and in the test on SR leukemia was greater than 100 µM each time. The TGI with COLO 205 colon and with HOP-62 NSCLC was greater than 100 µM in each case.

Consider `O=C(CC1(O)C(=O)Nc2c(Cl)cc(Cl)cc21)c1cccc2ccccc12` (stereo not given), for which the TGI came out at 29.2 µM in the test with U251 CNS; 29.8 µM in the test with UACC-257 melanoma; 25.3 µM in the test with CAKI-1 renal; 32.4 µM with SF-539 CNS; 32.5 µM with LOX IMVI melanoma; 38.5 µM in the test with SR leukemia. The figures for the TGI in the test on COLO 205 colon and in the test on HOP-62 NSCLC were 31.4 µM and 30.6 µM, respectively.

For the molecule `COc1cc(OC)c(C2CC=Cc3c(OC)cc(OC)c(OC)c32)cc1OC` (stereo not given), the TGI in the test on U251 CNS, in the test with UACC-257 melanoma, with CAKI-1 renal, with SF-539 CNS, in the test with LOX IMVI melanoma and with SR leukemia was greater than 100 µM in each case. Besides, the TGI with COLO 205 colon and with HOP-62 NSCLC was greater than 100 µM throughout.

As to `C[C@]1(CO)CCC[C@@]2(C)C1CC[C@H]1CC3C[C@]12CC[C@]3(C)O` (stereo not given in full), the TGI in the test on U251 CNS, with UACC-257 melanoma, in the test with CAKI-1 renal, in the test with SF-539 CNS, with LOX IMVI melanoma and in the test on SR leukemia was greater than 100 µM in each case. For the same molecule, the TGI in the test with COLO 205 colon and with HOP-62 NSCLC was greater than 100 µM in each case.

For `COc1cc2c3c(n(CCCI)c(=O)c2cc1OC)-c1cc2c(cc1C3=O)OCO2`, the GI50 in the test with U251 CNS is 1.21 µM; in the test with UACC-257 melanoma, 3.77 µM; in the test on CAKI-1 renal, 0.454 µM; in the test on SF-539 CNS, 4.04 µM; with PC-3 prostate, greater than 100 µM; with T-47D breast it was greater than 100 µM. The GI50 was 9.17 µM in the test on COLO 205 colon and 4.45 µM in the test on HOP-62 NSCLC. Moreover, the TGI was 17.5 µM with U251 CNS; 49.4 µM in the test on UACC-257 melanoma; greater than 100 µM in the test with CAKI-1 renal; greater than 100 µM in the test on SF-539 CNS; greater than 100 µM in the test on PC-3 prostate; greater than 100 µM in the test with T-47D breast. Also, the TGI with COLO 205 colon and in the test on HOP-62 NSCLC was greater than 100 µM throughout.

In the case of `COC(=O)CCCC(=O)O`, the TGI in the test with U251 CNS, with UACC-257 melanoma, in the test on CAKI-1 renal, with PC-3 prostate, with LOX IMVI melanoma and in the test with SR leukemia was greater than 100 µM throughout. Also, the TGI in the test on T-47D breast, in the test with COLO 205 colon and in the test on HOP-62 NSCLC was greater than 100 µM throughout.

`Fc1ccccc1C1CC(c2ccc3ccccc3c2)=Nc2ccccc2S1` (stereo not given): the TGI in the test with U251 CNS, in the test on UACC-257 melanoma, with CAKI-1 renal, in the test with SF-539 CNS, in the test on LOX IMVI melanoma and in the test on SR leukemia was greater than 100 µM in each case. The TGI in the test with COLO 205 colon and in the test with HOP-62 NSCLC was greater than 100 µM in each case.

On to `C=C1CC/C=C(\C)C(=O)C[C@@H]2[C@@H]1CC2(C)C`, for which the TGI amounted to 49.5 µM in the test with U251 CNS; 16 µM with UACC-257 melanoma; 3.01 µM in the test with CAKI-1 renal; 8.46 µM in the test on SF-539 CNS; 26.1 µM with PC-3 prostate; 7.06 µM in the test with LOX IMVI melanoma. The TGI came out at 7.8 µM in the test on T-47D breast, 3.87 µM with COLO 205 colon and 31.1 µM in the test on HOP-62 NSCLC.
